How the values were obtained:
VCAM-1 mRNA = assay: Quantification of hVCAM mRNA; type: cell-based, human; design: key: Active: an active compound is one that causes a ≥20% inhibition in VCAM-1 mRNA at a concentration less than or equal to 10 μM; -1 mRNA at a concentration less than or equal to 10 μM; details: VCAM-1 mRNA by real-time PCR; HUVECs, 1 h pretreatment, tumor necrosis factor-α stimulation 24 h; concentration ≤10 μM
Procedure: In this example, […] in tissue culture cells was quantitated to measure the transcriptional inhibition of hVCAM when treated with a compound of the invention.
Human umbilical vein endothelial cells (HUVECs) were plated in a 96-well plate (4.0×10^3 cells/well) in 100 μL EGM media and incubated for 24 h prior to the addition of the compound of interest. The cells were pretreated for 1 h with the test compound prior to stimulation with tumor necrosis factor-α. The cells were incubated for an additional 24 h before the cells were harvested. At time of harvest, the spent media was removed from the HUVECs and rinsed in 200 μL PBS. Cell lysis solution (70 μL) was then added the cells in each well and incubated for ˜5-10 min at room temperature, to allow for complete cell lysis and detachment. mRNA was then prepared using the “mRNA Catcher PLUS plate” (Invitrogen), according to the protocol supplied. After the last wash, as much wash buffer as possible was aspirated without allowing the wells to dry. Elution buffer (E3, 70 μL) was then added to each well. mRNA was then eluted by incubating the mRNA Catcher PLUS plate with elution buffer for 5 min at 68° C. and then immediately placing the plate on ice.
(§1) The eluted mRNA so isolated was then used in a one-step quantitative real-time PCR reaction, using components of the Ultra Sense Kit together with Applied Biosystems primer-probe mixes. Real-time PCR data was analyzed, normalizing the Ct values for hVCAM to an internal control, prior to determining the fold induction of each unknown sample, relative to the control.

hIL-6 mRNA = assay: Quantification of hIL-6 mRNA; type: cell-based, human; design: key: Active: an active compound is one that causes a ≥20% inhibition in IL-6 mRNA at a concentration less than or equal to 10 μM; details: IL-6 mRNA by real-time PCR; differentiated U937 cells, 1 h pretreatment, lipopolysaccharide stimulation 3 h; concentration ≤10 μM
Procedure: In this example, […] in tissue culture cells was quantitated to measure the transcriptional inhibition of hIL-6 when treated with a compound of the invention.
A human leukemic monocyte lymphoma cell line (U937) was plated (3.2×10^5 cells per well) in a 96-well plate in 100 μL RPMI-1640, and differentiated for 3 days prior to the addition of the compound of interest. The cells were pretreated for 1 h with the test compound prior to stimulation with lipolysaccharide from Escherichia coli. The cells were incubated at 37° C. for 3 h before the cells were harvested. At time of harvest, the spent media was removed from the cells and the cells were rinsed in 200 μL PBS. Cell lysis solution (70 μL) was added the cells in each well and incubated for 5-10 min at room temperature, to allow for complete cell lysis and detachment. mRNA was then prepared using the “mRNA Catcher PLUS plate” (Invitrogen), according to the protocol supplied. After the last wash, as much wash buffer as possible was aspirated without allowing the wells to dry. Elution buffer (E3, 70 μL) was then added to each well. mRNA was then eluted by incubating the mRNA Catcher PLUS plate with Elution Buffer for 5 min at 68° C. and then immediately placing the plate on ice.
as §1, with “mRNA” for “mRNA so”, “hIL-6” for “hVCAM”

## COc1cc(OC)c2c(=O)[nH]c(-c3ccc4[nH]c(CCN5CCCC5)cc4c3)nc2c1 [5,7-Dimethoxy-2-(2-(2-(pyrrolidin-1-yl)ethyl)-1H-indol-5-yl)quinazolin-4(3H)-one]
VCAM-1 mRNA
  Inhibition of VCAM-1 expression: Active
hIL-6 mRNA
  Inhibition of IL-6 expression: Active

## Cc1cc(-c2nc3ccccc3c(=O)[nH]2)cc(C)c1OCCN1CCOCC1 [2-(3,5-dimethyl-4-(2-morpholinoethoxy)phenyl)quinazolin-4(3H)-one]
VCAM-1 mRNA
  Inhibition of VCAM-1 expression: Active
hIL-6 mRNA
  Inhibition of IL-6 expression: Active

## COc1cccc2c(=O)[nH]c(-c3ccc(N4CCN(C(C)C)CC4)cc3)nc12 [2-(4-(4-Isopropylpiperazin-1-yl)phenyl)-8-methoxyquinazolin-4(3H)-one]
VCAM-1 mRNA
  Inhibition of VCAM-1 expression: Active
hIL-6 mRNA
  Inhibition of IL-6 expression: Active

## COc1cc(OC)c2c(=O)[nH]c(-c3ccc(N4CCN(C(=O)C5CC5)CC4)cc3)nc2c1 [2-(4-(4-(Cyclopropanecarbonyl)piperazin-1-yl)phenyl)-5,7-dimethoxyquinazolin-4(3H)-one]
VCAM-1 mRNA
  Inhibition of VCAM-1 expression: Active
hIL-6 mRNA
  Inhibition of IL-6 expression: Active

## CCCCN1CCN(c2ccc(-c3nc4cc(OC)cc(OC)c4c(=O)[nH]3)cc2)CC1 [2-(4-(4-butylpiperazin-1-yl)phenyl)-5,7-dimethoxyquinazolin-4(3H)-one]
VCAM-1 mRNA
  Inhibition of VCAM-1 expression: Active
hIL-6 mRNA
  Inhibition of IL-6 expression: Active

## COc1cc(OC)c2c(=O)[nH]c(-c3cc(C)c(OCCN4CCCCC4)c(C)c3)nc2c1 [2-(3,5-Dimethyl-4-(2-(piperidin-1-yl)ethoxy)phenyl)-5,7-dimethoxyquinazolin-4(3H)-one]
VCAM-1 mRNA
  Inhibition of VCAM-1 expression: Active
hIL-6 mRNA
  Inhibition of IL-6 expression: Active

## COc1cc(OC)c2c(=O)[nH]c(-c3ccc4[nH]c(CN5CCCC5)cc4c3)nc2c1 [5,7-Dimethoxy-2-(2-(pyrrolidin-1-ylmethyl)-1H-indol-5-yl)quinazolin-4(3H)-one]
VCAM-1 mRNA
  Inhibition of VCAM-1 expression: Active
hIL-6 mRNA
  Inhibition of IL-6 expression: Active

## COc1cc(OC)c2c(=O)[nH]c(-c3ccc(N4CCN(C(=O)c5cnn(C)c5Cl)CC4)cc3)nc2c1 [2-(4-(4-(5-Chloro-1-methyl-1H-pyrazole-4-carbonyl)piperazin-1-yl)phenyl)-5,7-dimethoxyquinazolin-4(3H)-one]
VCAM-1 mRNA
  Inhibition of VCAM-1 expression: Active
hIL-6 mRNA
  Inhibition of IL-6 expression: Active

## COc1cc(OC)c2c(=O)[nH]c(-c3cc(C)c(OCCN4CCOCC4)c(C)c3)nc2c1 [2-(3,5-dimethyl-4-(2-morpholinoethoxy)phenyl)-5,7-dimethoxyquinazolin-4(3H)-one]
VCAM-1 mRNA
  Inhibition of VCAM-1 expression: Active
hIL-6 mRNA
  Inhibition of IL-6 expression: Active

## COc1cc(OC)c2c(=O)[nH]c(-c3ccc(N4CCC(NC(C)=O)C4)cc3)nc2c1 (centres unmarked) [N-(1-(4-(5,7-Dimethoxy-4-oxo-3,4-dihydroquinazolin-2-yl)phenyl)pyrrolidin-3-yl)acetamide]
VCAM-1 mRNA
  Inhibition of VCAM-1 expression: Active
hIL-6 mRNA
  Inhibition of IL-6 expression: Active

## COc1cc(OC)c2c(=O)[nH]c(-c3cc(C)c(OCCN4CCCC4)c(C)c3)nc2c1 [2-(3,5-dimethyl-4-(2-(pyrrolidin-1-yl)ethoxy)phenyl)-5,7-dimethoxyquinazolin-4(3H)-one]
VCAM-1 mRNA
  Inhibition of VCAM-1 expression: Active
hIL-6 mRNA
  Inhibition of IL-6 expression: Active

## COc1cc(OC)c2c(=O)[nH]c(-c3ccc(N4CCN(C(C)=O)C(C)C4)cc3)nc2c1 (centres unmarked) [2-(4-(4-Acetyl-3-methylpiperazin-1-yl)phenyl)-5,7-dimethoxyquinazolin-4(3H)-one]
VCAM-1 mRNA
  Inhibition of VCAM-1 expression: Active
hIL-6 mRNA
  Inhibition of IL-6 expression: Active

## CCN(C(C)=O)C1CCN(c2ccc(-c3nc4cc(OC)cc(OC)c4c(=O)[nH]3)cc2)CC1 [N-(1-(4-(5,7-Dimethoxy-4-oxo-3,4-dihydroquinazolin-2-yl)phenyl)piperidin-4-yl)-N-ethylacetamide]
VCAM-1 mRNA
  Inhibition of VCAM-1 expression: Active
hIL-6 mRNA
  Inhibition of IL-6 expression: Active

## COc1cc(OC)c2c(=O)[nH]c(-c3ccc(N4C[C@@H](C)N[C@@H](C)C4)cc3)nc2c1 [2-(4-((3R,5S)-3,5-Dimethylpiperazin-1-yl)phenyl)-5,7-dimethoxyquinazolin-4(3H)-one]
VCAM-1 mRNA
  Inhibition of VCAM-1 expression: Active
hIL-6 mRNA
  Inhibition of IL-6 expression: Active

## CCCCCC(=O)N1CCN(c2ccc(-c3nc4cc(OC)cc(OC)c4c(=O)[nH]3)cc2)CC1 [2-(4-(4-Hexanoylpiperazin-1-yl)phenyl)-5,7-dimethoxyquinazolin-4(3H)-one]
VCAM-1 mRNA
  Inhibition of VCAM-1 expression: Inactive
hIL-6 mRNA
  Inhibition of IL-6 expression: Active

## COc1cc(OC)c2c(=O)[nH]c(-c3ccc(N4CCNCC4)cc3)nc2c1 [5,7-Dimethoxy-2-(4-(piperazin-1-yl)phenyl)quinazolin-4(3H)-one]
VCAM-1 mRNA
  Inhibition of VCAM-1 expression: Active
hIL-6 mRNA
  Inhibition of IL-6 expression: Active

## O=c1[nH]c(-c2ccc(N3CCN(CC(F)(F)F)CC3)cc2)nc2ccccc12 [2-(4-(4-(2,2,2-Trifluoroethyl)piperazin-1-yl)phenyl)quinazolin-4(3H)-one]
VCAM-1 mRNA
  Inhibition of VCAM-1 expression: Inactive
hIL-6 mRNA
  Inhibition of IL-6 expression: Active

## COc1cc(OC)c2c(=O)[nH]c(-c3ccc(N4CCN(C(=O)c5ccccc5)CC4)cc3)nc2c1 [2-(4-(4-Benzoylpiperazin-1-yl)phenyl)-5,7-dimethoxyquinazolin-4(3H)-one]
VCAM-1 mRNA
  Inhibition of VCAM-1 expression: Active
hIL-6 mRNA
  Inhibition of IL-6 expression: Active

## COc1cc(OC)c2c(=O)[nH]c(-c3ccc(N4CCN(CCO)CC4)cc3)nc2c1 [2-(4-(4-(2-hydroxyethyl)piperazin-1-yl)phenyl)-5,7-dimethoxyquinazolin-4(3H)-one]
VCAM-1 mRNA
  Inhibition of VCAM-1 expression: Active
hIL-6 mRNA
  Inhibition of IL-6 expression: Active

## COCCOc1cc(OC)cc2nc(-c3cc(C)nc(C)c3)[nH]c(=O)c12 [2-(2,6-Dimethylpyridin-4-yl)-7-methoxy-5-(2-methoxyethoxy)quinazolin-4(3H)-one]
VCAM-1 mRNA
  Inhibition of VCAM-1 expression: Inactive
hIL-6 mRNA
  Inhibition of IL-6 expression: Active

## COc1cc(OC)c2c(=O)[nH]c(-c3ccc(N4CCN(C(=O)c5ccccn5)CC4)cc3)nc2c1 [5,7-Dimethoxy-2-(4-(4-picolinoylpiperazin-1-yl)phenyl)quinazolin-4(3H)-one]
hIL-6 mRNA
  Inhibition of IL-6 expression: Active

## COc1cc(OC)c2c(=O)[nH]c(-c3ccc(CN4CCN(C(C)C)CC4)cc3)nc2c1 [2-(44(4-Isopropylpiperazin-1-yl)methyl)phenyl)-5,7-dimethoxyquinazolin-4(3H)-one]
hIL-6 mRNA
  Inhibition of IL-6 expression: Active

## COc1cc(OC)c2c(=O)[nH]c(-c3ccc(N4CCC(NC(=O)N(C)C)CC4)cc3)nc2c1 [3-(1-(4-(5,7-Dimethoxy-4-oxo-3,4-dihydroquinazolin-2-yl)phenyl)piperidin-4-yl)-1,1-dimethylurea]
hIL-6 mRNA
  Inhibition of IL-6 expression: Active

## COc1cc(OC)c2c(=O)[nH]c(-c3ccc(CN4CCN(C)CC4)cc3)nc2c1 [5,7-dimethoxy-2-(4-((4-methylpiperazin-1-yl)methyl)phenyl)quinazolin-4(3H)-one]
hIL-6 mRNA
  Inhibition of IL-6 expression: Active

## COc1cc(OC)c2c(=O)[nH]c(-c3ccc(N4CCN(C=O)CC4)cc3)nc2c1 [4-(4-(5,7-Dimethoxy-4-oxo-3,4-dihydroquinazolin-2-yl)phenyl)piperazine-1-carbaldehyde]
hIL-6 mRNA
  Inhibition of IL-6 expression: Active

## COc1cc(OC)c2c(=O)[nH]c(-c3ccc(N4CCC(NS(C)(=O)=O)CC4)cc3)nc2c1 [N-(1-(4-(5,7-Dimethoxy-4-oxo-3,4-dihydroquinazolin-2-yl)phenyl)piperidin-4-yl)methanesulfonamide]
hIL-6 mRNA
  Inhibition of IL-6 expression: Active

## COc1cc(OC)c2c(=O)[nH]c(-c3ccc(N4CCNC(C)C4)cc3)nc2c1 (centres unmarked) [5,7-Dimethoxy-2-(4-(3-methylpiperazin-1-yl)phenyl)quinazolin-4(3H)-one]
hIL-6 mRNA
  Inhibition of IL-6 expression: Active

Source: patent publication US11407719B2, “Anti-inflammatory agents” (Resverlogix Corp., priority 2009, dated 2022)
